Laboratory results published in patent US20060069132A1, “Azolecarboxamide herbicides” (priority 2004, published 2006).

Columns and labels:
barnyardgrass [1] = experiment: Test A pre-/postemergence herbicide test; assay type: in vivo, Echinochloa crus-galli
Outline: (§1)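 Seeds sown in sandy loam received a preemergence directed soil spray of compound in non-phytotoxic solvent with surfactant; postemergence plants (2–10 cm, one- to two-leaf stage) were sprayed to runoff at the same time. After ~10 days in greenhouse, injury was rated visually versus untreated controls (0 = no effect, 100 = complete control).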

large crabgrass [2] = experiment: Test A pre-/postemergence herbicide test; assay type: in vivo, Digitaria sanguinalis
Outline: as §1

giant foxtail [3] = experiment: Test A pre-/postemergence herbicide test; assay type: in vivo, Setaria faberi
Outline: as §1

morningglory [4] = experiment: Test A pre-/postemergence herbicide test; assay type: in vivo, Ipomoea spp.
Outline: as §1

redroot pigweed = experiment: Test A pre-/postemergence herbicide test; assay type: in vivo, Amaranthus retroflexus
Outline: as §1

velvetleaf [5] = experiment: Test A pre-/postemergence herbicide test; assay type: in vivo, Abutilon theophrasti
Outline: as §1

barnyardgrass [6] = experiment: Test B pre-/postemergence herbicide test; assay type: in vivo, Echinochloa crus-galli; conditions: for Plant response rating, Barnyardgrass: preemergence; for Barnyardgrass plant response rating: postemergence, visual rating, scale 0 (no effect) to 100 (complete control)
Outline: (§2)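 Seeds were planted and treated preemergence with compounds formulated in a non-phytotoxic solvent mixture containing surfactant, while plants at the 1- to 4-leaf stage (2 to 18 cm) received postemergence sprays. Flooded paddy plants were grown to the 2-leaf stage. After 13 to 15 days in a greenhouse, injury was visually rated 0–100 against untreated controls.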

Surinam grass = experiment: Test B pre-/postemergence herbicide test; assay type: in vivo, Urochloa decumbens; conditions: for Plant response rating, Surinam Grass: preemergence; for Surinam Grass plant response rating: postemergence, visual rating, scale 0 (no effect) to 100 (complete control)
Outline: (§3)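 Plants compared with untreated controls 13–15 days post-treatment and given a visual 0–100 injury score. Applications: preemergence to seeds; postemergence at 1- to 4-leaf (2–18 cm); paddy species flooded, 2-leaf stage. Vehicle non-phytotoxic, surfactant included.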

cocklebur = experiment: Test B pre-/postemergence herbicide test; assay type: in vivo, Xanthium strumarium; conditions: for Plant response rating, Cocklebur: preemergence; for Cocklebur plant response rating: postemergence, visual rating, scale 0 (no effect) to 100 (complete control)
Outline: as §2

corn = experiment: Test B pre-/postemergence herbicide test; assay type: in vivo, Zea mays; conditions: for Plant response rating, Corn: preemergence; for Corn plant response rating: postemergence, visual rating, scale 0 (no effect) to 100 (complete control)
Outline: as §3

large crabgrass [7] = experiment: Test B pre-/postemergence herbicide test; assay type: in vivo, Digitaria sanguinalis; conditions: for Plant response rating, Crabgrass, Large: preemergence; for Crabgrass, Large plant response rating: postemergence, visual rating, scale 0 (no effect) to 100 (complete control)
Outline: as §3

giant foxtail [8] = experiment: Test B pre-/postemergence herbicide test; assay type: in vivo, Setaria faberi; conditions: for Plant response rating, Foxtail, Giant: preemergence; for Foxtail, Giant plant response rating: postemergence, visual rating, scale 0 (no effect) to 100 (complete control)
Outline: as §3

lambsquarters = experiment: Test B pre-/postemergence herbicide test; assay type: in vivo, Chenopodium album; conditions: for Plant response rating, Lambsquarters: preemergence; for Lambsquarters plant response rating: postemergence, visual rating, scale 0 (no effect) to 100 (complete control)
Outline: as §3

morningglory [9] = experiment: Test B pre-/postemergence herbicide test; assay type: in vivo, Ipomoea coccinea; conditions: for Plant response rating, Morningglory: preemergence; for Morningglory plant response rating: postemergence, visual rating, scale 0 (no effect) to 100 (complete control)
Outline: as §2

pigweed = experiment: Test B pre-/postemergence herbicide test; assay type: in vivo, Amaranthus retroflexus; conditions: for Plant response rating, Pigweed: preemergence; for Pigweed plant response rating: postemergence, visual rating, scale 0 (no effect) to 100 (complete control)
Outline: as §3

rice [10] = experiment: Test B pre-/postemergence herbicide test; assay type: in vivo, Oryza sativa; conditions: 500 g ai/ha; visual rating 0-100, 0 no effect, 100 complete control; preemergence
Outline: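 Greenhouse pot assay with simultaneous preemergence (treated seed) and postemergence (2–18 cm seedlings) applications of surfactant-containing, non-phytotoxic solvent formulations. Response scored visually 13–15 days later on a 0–100 scale, 100 meaning complete control.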

velvetleaf [11] = experiment: Test B pre-/postemergence herbicide test; assay type: in vivo, Abutilon theophrasti; conditions: for Plant response rating, Velvetleaf: preemergence; for Velvetleaf plant response rating: postemergence, visual rating, scale 0 (no effect) to 100 (complete control)
Outline: as §3

blackgrass = experiment: Test B postemergence herbicide test; assay type: in vivo, Alopecurus myosuroides; conditions: postemergence, visual rating, scale 0 (no effect) to 100 (complete control)
Outline: (§4)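 Postemergence plants were sprayed with formulated test chemicals at 2 to 18 cm height (1- to 4-leaf stage); paddy species were grown to the 2-leaf stage. After 13 to 15 days in a greenhouse, injury was rated visually against untreated controls on a 0–100 scale (0 = no effect, 100 = complete control).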

wheat = experiment: Test B postemergence herbicide test; assay type: in vivo, Triticum aestivum; parameters: key to Wheat plant response rating: 0 = no effect, 100 = complete control; conditions: postemergence, visual rating, scale 0 (no effect) to 100 (complete control)
Outline: (§5)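 Each value is a visual 0–100 response rating taken against controls 13 to 15 days after treatment in the greenhouse. Plants received formulated chemical postemergence at the 1- to 4-leaf stage or, in flooded paddy, at the 2-leaf stage.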

wild oat = experiment: Test B postemergence herbicide test; assay type: in vivo, Avena fatua; conditions: postemergence, visual rating, scale 0 (no effect) to 100 (complete control)
Outline: as §5

rice [12] = experiment: Test B flooded paddy test; assay type: in vivo, Oryza sativa; conditions: 1000 g ai/ha, visual rating, scale 0 to 100 (0 no effect, 100 complete control), 13 to 15 days
Outline: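 Formulated test chemicals went onto postemergence plants measuring 2 to 18 cm, at one to four leaves. For the paddy assay, species had reached two leaves. Scoring took place 13–15 days later by eye, relative to untreated plants, using 0 for no effect up to 100 for full control.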

[13] = tested on: small flower umbrella sedge; experiment: Test B flooded paddy test; assay type: in vivo, Cyperus difformis; conditions: 1000 g ai/ha, visual rating, scale 0 to 100 (0 no effect, 100 complete control), 13 to 15 days
Outline: as §4

ducksalad = experiment: Test B flooded paddy test; assay type: in vivo, Heteranthera limosa; conditions: 1000 g ai/ha, visual rating, scale 0 to 100 (0 no effect, 100 complete control), 13 to 15 days
Outline: as §4

barnyardgrass [14] = experiment: Test B flooded paddy test; assay type: in vivo, Echinochloa crus-galli; conditions: 1000 g ai/ha, visual rating, scale 0 to 100 (0 no effect, 100 complete control), 13 to 15 days
Outline: as §4

[15] = Postemergence, 250 g ai/ha, 0 to 100 scale, 0 no effect, 100 complete control
[16] = Postemergence, 1000 g ai/ha, 0 to 100 scale, 0 no effect, 100 complete control
[17] = Preemergence, 1000 g ai/ha, visual rating, 0 to 100 scale (0 no effect, 100 complete control)
[18] = preemergence, 250 g ai/ha, visual injury, 0 to 100 scale (0 no effect, 100 complete control)
[19] = 500 g ai/ha, visual rating 0-100, 0 no effect, 100 complete control
[20] = 125 g ai/ha, 0 to 100 scale, 0 is no effect, 100 is complete control

CCn1nc(C(C)(C)C)cc1C(=O)Nc1cccc(S(C)(=O)=O)c1 [Compound 133]
Barnyardgrass plant response rating (barnyardgrass [1]; [15]): 20
Plant response rating, Barnyardgrass (barnyardgrass [1]; [16]): 55
Barnyardgrass plant response rating (barnyardgrass [1]; [17]): 45
Barnyardgrass plant response rating (barnyardgrass [1]; [18]): 0
Crabgrass, Large plant response rating (large crabgrass [2]; [15]): 10
Plant response rating, Crabgrass, Large (large crabgrass [2]; [16]): 20
Crabgrass, Large plant response rating (large crabgrass [2]; [17]): 80
Crabgrass, Large plant response rating (large crabgrass [2]; [18]): 25
Foxtail, Giant plant response rating (giant foxtail [3]; [15]): 10
Plant response rating, Foxtail, Giant (giant foxtail [3]; [16]): 20
Foxtail, Giant plant response rating (giant foxtail [3]; [17]): 30
Foxtail, Giant plant response rating (giant foxtail [3]; [18]): 0
Morningglory plant response rating (morningglory [4]; [15]): 10
Plant response rating, Morningglory (morningglory [4]; [16]): 20
Morningglory plant response rating (morningglory [4]; [17]): 0
Morningglory plant response rating (morningglory [4]; [18]): 0
Pigweed plant response rating (redroot pigweed; [15]): 30
Plant response rating, Pigweed (redroot pigweed; [16]): 75
Pigweed plant response rating (redroot pigweed; [17]): 65
Pigweed plant response rating (redroot pigweed; [18]): 10
Velvetleaf plant response rating (velvetleaf [5]; [15]): 10
Plant response rating, Velvetleaf (velvetleaf [5]; [16]): 15
Velvetleaf plant response rating (velvetleaf [5]; [17]): 35
Velvetleaf plant response rating (velvetleaf [5]; [18]): 5
Plant response rating, Barnyardgrass (barnyardgrass [6]; [19]): 60
Barnyardgrass plant response rating (barnyardgrass [6]; 125 g ai/ha): 0
Barnyardgrass plant response rating (barnyardgrass [6]; 500 g ai/ha): 40
Plant response rating, Barnyardgrass (barnyardgrass [6]; [20]): 10
Plant response rating, Surinam Grass (Surinam grass; [19]): 20
Surinam Grass plant response rating (Surinam grass; 125 g ai/ha): 0
Surinam Grass plant response rating (Surinam grass; 500 g ai/ha): 50
Plant response rating, Surinam Grass (Surinam grass; [20]): 0
Plant response rating, Cocklebur (cocklebur; [19]): 0
Cocklebur plant response rating (cocklebur; 125 g ai/ha): 10
Cocklebur plant response rating (cocklebur; 500 g ai/ha): 60
Plant response rating, Cocklebur (cocklebur; [20]): 0
Plant response rating, Corn (corn; [19]): 0
Corn plant response rating (corn; 125 g ai/ha): 10
Corn plant response rating (corn; 500 g ai/ha): 20
Plant response rating, Corn (corn; [20]): 0
Plant response rating, Crabgrass, Large (large crabgrass [7]; [19]): 80
Crabgrass, Large plant response rating (large crabgrass [7]; 125 g ai/ha): 10
Crabgrass, Large plant response rating (large crabgrass [7]; 500 g ai/ha): 30
Plant response rating, Crabgrass, Large (large crabgrass [7]; [20]): 20
Plant response rating, Foxtail, Giant (giant foxtail [8]; [19]): 40
Foxtail, Giant plant response rating (giant foxtail [8]; 125 g ai/ha): 0
Foxtail, Giant plant response rating (giant foxtail [8]; 500 g ai/ha): 20
Plant response rating, Foxtail, Giant (giant foxtail [8]; [20]): 0
Plant response rating, Lambsquarters (lambsquarters; [19]): 100
Lambsquarters plant response rating (lambsquarters; 125 g ai/ha): 60
Lambsquarters plant response rating (lambsquarters; 500 g ai/ha): 70
Plant response rating, Lambsquarters (lambsquarters; [20]): 50
Plant response rating, Morningglory (morningglory [9]; [19]): 10
Morningglory plant response rating (morningglory [9]; 125 g ai/ha): 10
Morningglory plant response rating (morningglory [9]; 500 g ai/ha): 20
Plant response rating, Morningglory (morningglory [9]; [20]): 10
Plant response rating, Pigweed (pigweed; [19]): 100
Pigweed plant response rating (pigweed; 125 g ai/ha): 20
Pigweed plant response rating (pigweed; 500 g ai/ha): 50
Plant response rating, Pigweed (pigweed; [20]): 100
Plant response rating, Rice (rice [10]): 40
Plant response rating, Velvetleaf (velvetleaf [11]; [19]): 70
Velvetleaf plant response rating (velvetleaf [11]; 125 g ai/ha): 10
Velvetleaf plant response rating (velvetleaf [11]; 500 g ai/ha): 50
Plant response rating, Velvetleaf (velvetleaf [11]; [20]): 20
Blackgrass plant response rating (blackgrass; 125 g ai/ha): 0
Blackgrass plant response rating (blackgrass; 500 g ai/ha): 10
Wheat plant response rating (wheat; 125 g ai/ha): 0
Wheat plant response rating (wheat; 500 g ai/ha): 0
Oat, Wild plant response rating (wild oat; 125 g ai/ha): 20
Oat, Wild plant response rating (wild oat; 500 g ai/ha): 20
Rice plant response rating (rice [12]): 0
Sedge, Umbrella plant response rating [13]: 40
Ducksalad plant response rating (ducksalad): 50
Barnyardgrass plant response rating (barnyardgrass [14]): 20
